Measurements reported in US4916122A, “3'-Azido-2',3'-dideoxyuridine anti-retroviral composition” (University of Georgia Research Foundation, Inc., priority 1987, dated 1990).
In brackets after ≈: the same amount, converted by molar mass. Several values for one entry are separate records, joined by “and”; a condition that tells them apart may be missing. Equal entries are not always repeated. Where two headings read alike, the source gives them in different places.

Assays:
[1] = tested on: HIV (LAV-1); test: Median effective antiviral concentration against HIV (Table 5); type: cell-based; conditions: HIV (LAV-1) vs Friend (EY-10) or Cas-Br-M
[2] = tested on: SIV (SMM); test: Median effective antiviral concentration against SIV (Table 5); type: cell-based, simian immunodeficiency virus
Description: (§1) A comparison of the differences in median effective an tiviral concentrations between human, non-human primate, and murine retroviruses is shown in Table 5. […] A further comparison of the activity of several nucleoside analogues, including CS-87, against HIV-1 and SIV in human PBM cells is shown in FIG. 6. The effect of delayed treatment with AZT, CS-87 or CS-91 on the replication of HIV-1 and SIV in human PBM cells is shown in FIGS. 7a, b, and c.

[3] = tested on: Mouse ecotropic (Cas-Br-M); test: Median effective antiviral concentration against mouse ecotropic virus (Table 5); type: cell-based, murine retrovirus; conditions: unidentified retrovirus
Description: as §1

[4] = in vivo; design: species or system mouse; conditions: mice, 250 mg/kg iv
Procedure: In rhesus monkeys, the pharmocokinetic parameters after an oral dose of […] of CS-87 are as follows:
^a Mice were administered the drug at a dose of 250 mg/kg iv.

[5] = in vivo; type: in vivo, rhesus monkey; conditions: rhesus monkeys, oral dose of 920 mg
Procedure: In rhesus monkeys, the pharmocokinetic parameters after an oral dose of […] of CS-87 are as follows: […]

[6] = in vitro; type: cell-based
Description: The effect of CS-87 on colony formation of human granulocytes-macrophage precursor cells was compared with the effects of AZT and CS-85 in FIG. 1. Vero cells are very fast growing cells, and it can be seen from FIG. 2a that up to a concentration of about 400 micromolar, there is relatively little toxicity to these cells. PBM cells are somewhat more sensitive to CS-87 than the Vero cells, but these cells will still tolerate a concentration of CS-87 of up to about 200 micromolar before significant inhibition is noted (see FIG. 2b).

[7] = Effect on weight of uninfected BALB/c mice (FIG. 3); type: in vivo, mouse; conditions: compared with each other and control
[8] = tested on: liver enzymes SGPT and SGOT; type: in vivo, rhesus monkey; conditions: rhesus monkeys, FIG. 4
[9] = tested on: HIV-1 and SIV; test: Effect of delayed treatment on replication of HIV-1 and SIV in human PBM cells (FIG. 7); type: cell-based, HIV-1; SIV
Description: as §1

[10] = tested on: NIH Swiss mice; conditions: 67 days; for Hct / Hgb / MCH / MCHC / MCV / PLT / RBC / RDW / WBC: oral 0.5 mg/ml ad libitum
[11] = tested on: HIV; conditions: in vitro
[12] = tested on: L1210 cells; conditions: in vitro; Lin et al.; Lin and Mancini; cited from earlier work
[13] = tested on: sarcoma 180 cells; conditions: in vitro; Lin et al.; cited from earlier work
[14] = tested on: two particular enzymes isolated from L1210 cells; conditions: Lin et al.; cited from earlier work
[15] = tested on: reovirus-1; conditions: Colla et al.; cited from earlier work
[16] = tested on: parainfluenza virus-3; conditions: Colla et al.; cited from earlier work
[17] = tested on: Sindbis virus; conditions: Colla et al.; cited from earlier work
[18] = tested on: HIV-1 (Strain HTLV-III); test: Antiviral activity against HIV-1 in ATH-8 cells (Table 4)
[19] = tested on: HIV-1 p24; test: Inhibition of HIV replication in human PBM cells, p24 RIA (Table 3)
[20] = tested on: HIV p24 and p41; test: Inhibition of HIV replication in human PBM cells, western blot analysis (Table 3)
[21] = tested on: HIV-1 (strain LAV); test: Inhibition of HIV replication in human PBM cells, reverse transcriptase assay (Table 3)
[22] = Human immunodeficiency virus 1, PBMC, in Homo sapiens, read-out: RIA p24 % Inhibition
[23] = Human immunodeficiency virus 1, PBMC, in Homo sapiens, read-out: RT % Inhibition (corrected)

For [N-]=[N+]=N[C@H]1C[C@H](n2ccc(=O)[nH]c2=O)O[C@@H]1CO [CS-87, 3'-azido-2',3'-dideoxyuridine], the “effectiveness against HIV (LAV-1) compared with Friend or mouse ecotropic virus” value [1] was “much more effective”, the “effectiveness against SIV (SMM) compared with Friend or mouse ecotropic virus” value ([2]; SIV (SMM) vs Friend (EY-10) or Cas-Br-M) was “much more effective” and the EC50 ([2]; Simian immunodeficiency virus) was 0.2 µM. The EC50 [3] was 9.1 µM, the “Ratio: % B/S” value ([4]; 5 min) was 6.3% and the Serum levels ([4]; 5 min) was 125.7 µg/mL. For the same molecule, the Kp at 5 min ([4]; mouse, in vivo, iv, 250 mg/kg, 5 min, read-out: Ratio: % B/S) was 0.043, the concentration at 5 min ([4]; mouse, in vivo, iv, 250 mg/kg, 5 min, read-out: Serum levels) was 71.3 µg/mL and the concentration at 31 min ([4]; mouse, in vivo, iv, 250 mg/kg, 31 min, read-out: Brain levels) was 11.1 µg/mL. It also gave a Kp at 31 min ([4]; mouse, in vivo, iv, 250 mg/kg, 31 min, read-out: Ratio: % B/S) of 0.122, a concentration at 31 min ([4]; mouse, in vivo, iv, 250 mg/kg, 31 min, read-out: Serum levels) of 91 µg/mL and a concentration at 34 min ([4]; mouse, in vivo, iv, 250 mg/kg, 34 min, read-out: Brain levels) of 5.67 µg/mL. It also gave a Kp at 34 min ([4]; mouse, in vivo, iv, 250 mg/kg, 34 min, read-out: Ratio: % B/S) of 0.102, a concentration at 34 min ([4]; mouse, in vivo, iv, 250 mg/kg, 34 min, read-out: Serum levels) of 55.5 µg/mL and a concentration at 71 min ([4]; mouse, in vivo, iv, 250 mg/kg, 71 min, read-out: Brain levels) of 6.4 µg/mL. It also gave a Kp at 71 min ([4]; mouse, in vivo, iv, 250 mg/kg, 71 min, read-out: Ratio: % B/S) of 0.261, a concentration at 71 min ([4]; mouse, in vivo, iv, 250 mg/kg, 71 min, read-out: Serum levels) of 24.5 µg/mL and a concentration at 1.2 h ([4]; mouse, in vivo, iv, 250 mg/kg, 72 min, read-out: Brain levels) of 7.33 µg/mL. It also gave a Kp at 1.2 h ([4]; mouse, in vivo, iv, 250 mg/kg, 72 min, read-out: Ratio: % B/S) of 0.134, a concentration at 1.2 h ([4]; mouse, in vivo, iv, 250 mg/kg, 72 min, read-out: Serum levels) of 54.8 µg/mL and an AUC ([5]; rhesus monkey, in vivo) of 113 µg·h/mL. For the same molecule, the CL/F ([5]; rhesus monkey, in vivo, read-out: clearance (converted)) was 1.74 L/h/kg, the k el ([5]; rhesus monkey, in vivo, read-out: elimination rate constant, k (converted)) was 0.000397 s⁻¹ and the half-life ([5]; rhesus monkey, in vivo, read-out: elimination t1/2 k (converted)) was 28.8 min. The Vd/F ([5]; rhesus monkey, in vivo, read-out: volume of distribution (Vss)) was 1.2 L/kg, the “absorption rate constant (ka)” value [5] was 1.73 h⁻¹ and the “absorption rate t1/2” value [5] was 24 min. The MNTC ([6]; human, PBM cells, FIG. 2b, read-out: concentration tolerated by PBM cells before significant inhibition is noted) was about 200 µM, the MNTC ([6]; monkey, Vero cells, FIG. 2a, read-out: concentration up to which there is relatively little toxicity to Vero cells) was about 400 µM and the “effect on weight of uninfected BALB/c mice” value [7] was “no significant difference”. The “toxicity by oral (po) vs intravenous administration” value [8] was “less toxic than intravenous administration”, the “effect of delayed treatment on replication of HIV-1 and SIV” value [9] was “time of administration is critical to the effectiveness of the treatment” and the Hct ([10]; Mean of group) was 42.4%. For the same molecule, the Hgb ([10]; Mean of group) was 14.0 g/dL, the MCH ([10]; Mean of group) was 16.7 pg and the MCHC ([10]; Mean of group) was 33.1 g/dL. The MCV ([10]; Mean of group) was 50.4 fL, the PLT ([10]; Mean of group) was 1.3 × 10^6 and the RBC ([10]; Mean of group) was 8.4 × 10^6. For the same molecule, the RDW ([10]; Mean of group) was 26.0%, the WBC ([10]; Mean of group) was 8.0 × 10^3 and the “toxicity compared to AZT (RBC and MCV values)” value ([10]; NIH Swiss mice, oral 0.5 mg/ml) was “significantly less toxicity”. For the same molecule, the Hct ([10]; individual mouse) was 37.2% and 44.4% and 42.3% and 45.7%, the Hgb ([10]; individual mouse) was 12.9 g/dL and 14.1 g/dL and 14.2 g/dL and 14.8 g/dL and the MCH ([10]; individual mouse) was 16.9 pg and 16.4 pg and 16.6 pg and 16.8 pg. The MCHC ([10]; individual mouse) was 34.6 g/dL and 31.8 g/dL and 33.5 g/dL and 32.4 g/dL, the MCV ([10]; individual mouse) was 48.8 fL and 51.7 fL and 49.4 fL and 51.8 fL and the PLT ([10]; individual mouse) was 1.158 × 10^6 and 1.35 × 10^6 and 1.305 × 10^6 and 1.361 × 10^6. The RBC ([10]; individual mouse) was 7.6 × 10^6 and 8.6 × 10^6 and 8.8 × 10^6, the RDW ([10]; individual mouse) was 34.3% and 16.8% and 37.7% and 15.3% and the WBC ([10]; individual mouse) was 2.6 × 10^3 and 8.9 × 10^3 and 7.9 × 10^3 and 12.6 × 10^3. The “activity against HIV, in words” value [11] was “selective anti-HIV-1 activity”, the “activity against L1210 cells” value [12] was “inactive” and the “activity against sarcoma 180 cells” value [13] was “inactive”. The “inhibitory activity towards two particular enzymes isolated from L1210 cells” value [14] was “only marginal inhibitory activity”, the “activity against reovirus-1” value [15] was “inactive” and the “activity against parainfluenza virus-3” value [16] was “inactive”. The “activity against Sindbis virus” value [17] was “inactive”, the “activity compared to d2C in ATH-8 cells” value ([18]; ATH-8 cells) was “comparable activity to d2C” and the MIC ([18]; Human immunodeficiency virus 1, 240 h, read-out: ATH-8 (MIC)) was 0.4 µM (≈ 0.101 µg/mL). For the same molecule, the “RIA p24 (Dupont kit)” value ([19]; 0.1 μM) was 21.86 ng/mL, the “RIA p24 (Dupont kit)” value ([19]; 1 μM) was 11.76 ng/mL and the “RIA p24 (Dupont kit)” value ([19]; 10 μM) was 0.65 ng/mL. It also gave an inhibition at 0.1 µM [19, 22] of 9.2%, an inhibition at 1 µM [19, 22] of 51.2% and an inhibition at 10 µM [19, 22] of 97.3%. The “Western blot p24 (band intensity)” value ([20]; 0.1 μM) was 3+, the “Western blot p41 (band intensity)” value ([20]; 0.1 μM) was 2+ and the “Western blot p24 (band intensity)” value ([20]; 1 μM) was 2+. For the same molecule, the “Western blot p41 (band intensity)” value ([20]; 1 μM) was 1+, the “Western blot p24 (band intensity)” value ([20]; 10 μM) was 0 and the “Western blot p41 (band intensity)” value ([20]; 10 μM) was 0. For the same molecule, the “RT: Mean DPM/ml on day 5 (3 day old cells)” value (“RT: Mean DPM/ml” below) ([21]; 0.1 μM) was 367,934 DPM/ml, the “RT: Mean DPM/ml” value ([21]; 1 μM) was 188,878 DPM/ml and the “RT: Mean DPM/ml” value ([21]; 10 μM) was 12,904 DPM/ml. For the same molecule, the inhibition at 0.1 µM [21, 23] was 42.3%, the inhibition at 1 µM [21, 23] was 70.4% and the inhibition at 10 µM [21, 23] was 98%.
